Laboratory results from patent US12668589B2, “N-formamidopyrazoline derivative as P2X3 receptor antagonist and use thereof” (HANGZHOU WESTAN PHARMACEUTICAL TECHNOLOGY CO., LTD, priority 2020, dated 2026).

Experiments:
taste of SD rats = assay: Rat taste test (quinine water / tap water drinking); assay type: in vivo
Method: Experimental purpose: to observe an effect of title compounds on taste of SD rats.
• 1.1) Animals and grouping: 40 male SD rats, with about 300 grams per rat. […] A bottle of normal drinking water and a bottle of drinking water containing 0.3 mM quinine hydrochloride were placed in each cage at the same time, and left and right positions where the two bottles of water were placed in all animal feeding cages were the same. After the animals were allowed to freely drink water for 15 minutes, drinking amounts of the two bottles of water were measured respectively to the nearest 0.1 mL. • 1.5) Data statistics: drinking amounts of quinine bitter water and tap water and a total water drinking amount thereof as well as a percentage of quinine water in the total water drinking amount were counted respectively. Water drinking amounts of the bitter water of animals in each group were compared. Whether differences between groups were significant was compared by analysis of variance. 2) Experimental Results

chronic cough = settings: literature, cited from earlier work
human PAR-1 = target: T1, human PAR-1 (Homo sapiens, UniProt P25116); assay: Inhibitory activity against PAR-1, calcium ion flux fluorescence method (FLIPR); assay type: cell-based; settings: HEK293/Ga15 cells expressing human PAR-1, TFLLR-NH2 10 μM, starting concentration 30 μM
T1 construct: host or cells: HEK293/Ga15 recombinant cell line
T1 sequence (P25116 22-425): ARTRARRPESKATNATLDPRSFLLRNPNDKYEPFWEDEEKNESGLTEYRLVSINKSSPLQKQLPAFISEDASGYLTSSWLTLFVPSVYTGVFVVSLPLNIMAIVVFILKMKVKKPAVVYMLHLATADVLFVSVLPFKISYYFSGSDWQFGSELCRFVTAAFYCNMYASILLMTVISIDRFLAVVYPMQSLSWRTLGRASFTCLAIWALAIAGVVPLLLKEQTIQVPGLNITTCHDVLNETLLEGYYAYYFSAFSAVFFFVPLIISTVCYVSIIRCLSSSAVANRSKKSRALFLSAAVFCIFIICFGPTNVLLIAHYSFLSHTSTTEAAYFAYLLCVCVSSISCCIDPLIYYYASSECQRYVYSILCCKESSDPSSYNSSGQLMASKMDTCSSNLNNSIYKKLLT
Method: The inhibitory activity of the title compounds against human PAR-1 was determined by a calcium ion flux fluorescence method (an FLIPR method). The method thereof was reported in the literature of Zhong et al. [Zhong et al. J Biomol Struct Dyn, 2017, 35(13):2853].
An HEK293/Ga15 recombinant cell line (HD Biosciences, Shanghai, China) stably expressing human PAR-1 was cultured in a DMEM (Thermo Fisher Scientific, Shanghai) culture solution (containing 10% calf serum, 800 μg/mL G418). Incubator conditions were 37° C. and an air humidity with 5% CO2.
On the first day, 20 μL per well of PAR-1 cells at a concentration of 4E+5 cells/mL were seeded in a 384-well analysis plate (Corning 3712). […] On the second day, a culture solution in each well was poured off. Then, 20 μL of 1×loading dye (2 μM Fluo-8 AM in 1×HBSS with 20 mM HEPES, 1 mM Probenecid, 0.025% Pluronic F-127 assay buffer) was added in each well. The cell analysis plate was cultured for 1 hour at a room temperature.
The compounds were dissolved into 100% DMSO to prepare a 10 mM stock solution, which was stored at −20° C. On the day of use, the compound stock solution was thawed at a room temperature. Each compound was subjected to 1:3 serial dilution at 11 concentration points with a DMEM culture solution with a starting concentration of 30 μM. Each compound was subjected to double dilution for testing. A positive control compound was diluted in the same way with SCH79797 with a starting concentration of 30 μM.
The cell analysis plate was placed in a FLIPR instrument (Molecular Device) and 10 μL of compounds (3× of a final concentration) in a compound plate was added to corresponding wells of the cell analysis plate. After 10 minutes, 10 μL of TFLLR-NH2 (TFA) (a final concentration of 10 μM) was added to each well to stimulate generation of intracellular calcium flux signals. Ca^++-dependent fluorescence signals were continuously monitored at excitation wavelengths of 470/495 nm and emission wavelengths of 515/575 nm to analyze the inhibitory activity of the compounds.
Data were collected and analyzed by using an FLIPR program. The inhibitory (or agonistic) activity of the compounds at each concentration was assessed by fluorescence peaks. IC50 values of the compounds were calculated by using EXCEL and PRISM programs.

gpP2X3 = target: T2, gpP2X3 (Cavia porcellus, UniProt H0VWY5); assay: Inhibitory activity against P2X3 in guinea pigs (electrophysiological method); assay type: cell-based; settings: guinea pig P2X3, electrophysiological method
T2 sequence (H0VWY5 1-391): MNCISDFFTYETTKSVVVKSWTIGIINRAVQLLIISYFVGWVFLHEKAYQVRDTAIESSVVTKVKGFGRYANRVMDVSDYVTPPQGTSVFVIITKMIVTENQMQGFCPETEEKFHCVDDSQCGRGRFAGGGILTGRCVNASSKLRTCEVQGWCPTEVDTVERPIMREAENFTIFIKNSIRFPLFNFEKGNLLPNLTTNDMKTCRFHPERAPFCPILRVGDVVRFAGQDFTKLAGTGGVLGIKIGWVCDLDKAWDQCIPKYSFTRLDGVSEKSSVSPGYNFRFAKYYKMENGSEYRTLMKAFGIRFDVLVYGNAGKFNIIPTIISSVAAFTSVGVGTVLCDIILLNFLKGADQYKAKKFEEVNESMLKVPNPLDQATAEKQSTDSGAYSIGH

rP2X3 = target: T3, rP2X3 (Rattus norvegicus, UniProt P49654); assay: Inhibitory activity against P2X3 in rats (electrophysiological method); assay type: cell-based
T3 construct: expressed in transfected cells; host or cells: HEK293
T3 sequence (P49654 1-397): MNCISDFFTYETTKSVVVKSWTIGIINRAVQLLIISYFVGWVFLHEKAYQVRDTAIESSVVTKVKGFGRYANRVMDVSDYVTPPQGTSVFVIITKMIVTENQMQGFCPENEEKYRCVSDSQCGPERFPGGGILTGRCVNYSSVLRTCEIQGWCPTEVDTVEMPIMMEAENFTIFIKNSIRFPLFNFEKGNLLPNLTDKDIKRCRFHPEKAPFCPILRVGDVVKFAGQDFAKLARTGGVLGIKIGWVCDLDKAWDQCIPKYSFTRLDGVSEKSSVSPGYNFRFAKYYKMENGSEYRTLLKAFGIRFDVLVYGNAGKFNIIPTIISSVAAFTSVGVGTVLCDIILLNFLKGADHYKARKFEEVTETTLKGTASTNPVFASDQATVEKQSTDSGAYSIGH

human P2X4 = target: T4, human P2X4 (Homo sapiens, UniProt Q99571); assay: Inhibitory activity against human P2X4 (electrophysiological method); assay type: cell-based; settings: read-out: hP2X4 (IC50)
T4 construct: expressed in transfected cells; host or cells: HEK293
T4 sequence (Q99571 1-388): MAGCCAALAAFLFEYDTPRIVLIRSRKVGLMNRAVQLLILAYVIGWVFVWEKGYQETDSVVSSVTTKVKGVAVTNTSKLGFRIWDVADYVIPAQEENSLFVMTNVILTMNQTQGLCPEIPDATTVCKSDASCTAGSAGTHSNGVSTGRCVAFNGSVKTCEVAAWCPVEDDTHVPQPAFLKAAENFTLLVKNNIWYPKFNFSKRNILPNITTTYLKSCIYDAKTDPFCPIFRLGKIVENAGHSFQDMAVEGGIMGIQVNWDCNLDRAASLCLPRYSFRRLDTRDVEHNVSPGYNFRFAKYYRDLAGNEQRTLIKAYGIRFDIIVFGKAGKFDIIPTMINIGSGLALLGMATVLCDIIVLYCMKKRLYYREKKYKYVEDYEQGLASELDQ

human P2X3 = target: T5, human P2X3 (Homo sapiens, UniProt P56373); assay: cell-based
T5 sequence (P56373 1-397): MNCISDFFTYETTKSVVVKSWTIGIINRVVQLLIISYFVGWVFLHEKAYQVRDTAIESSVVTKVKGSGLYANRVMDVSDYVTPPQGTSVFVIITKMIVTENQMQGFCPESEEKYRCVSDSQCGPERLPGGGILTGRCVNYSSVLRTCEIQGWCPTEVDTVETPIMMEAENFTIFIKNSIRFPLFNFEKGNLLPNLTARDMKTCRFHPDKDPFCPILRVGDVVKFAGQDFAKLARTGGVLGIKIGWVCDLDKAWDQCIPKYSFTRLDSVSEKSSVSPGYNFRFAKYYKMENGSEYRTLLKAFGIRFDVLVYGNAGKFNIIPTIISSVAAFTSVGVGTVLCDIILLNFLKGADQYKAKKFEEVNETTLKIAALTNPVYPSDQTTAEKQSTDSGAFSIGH
Method: An HEK293 cell line was used as cells. HEK293 cells were placed in a 37° C. incubator with 5% CO2 for culture. Passage was conducted when the cells grew to a density of 80% to 90%. A culture medium in an original 60 mm culture dish was discarded. After the cells were washed 3 times with a sterilized PBS solution, and the solution was blotted up. […] After the trypsin was blotted up, 3 mL of a cell culture medium was added to resuspend the cells. 0.5 mL of a resuspension solution was taken to be added into a new culture dish, and an total culture solution was supplemented to 5 mL. The culture dish was gently shaken to distribute the cells evenly, and then placed in a 37° C. incubator with 5% CO2 for culture.
First, treated slides were spread in a small 35 mm culture dish. 100 μL of resuspended cells were added, and then a total amount of a culture medium was supplemented to 2 mL. Target genes were transferred into the HEK293 cell line by adopting a calcium transfection method. Small dishes to be transfected were subjected to medium change 1 hour before transfection. 2 mL of a fresh cell culture solution was added. A 1.5 mL EP tube was taken, 200 μL of a 0.25 M CaCl2) solution was added, and 3 μg of plasmids to be transfected were added, and even mixing was conducted to form a DNA-CaCl2 solution. […] A pipette tip was used for mixing while adding. After adding all, gentle blowing and beating were conducted 8 to 10 times. After still standing for 5 minutes, they were added into small dishes. The small dishes were shaken slightly to mix the solution evenly, and the placed in a cell incubator. Culture mediums were replaced after 8 to 10 hours. Electrophysiological experiments were performed 24 to 48 hours after transfection.
Electrophysiological recording electrodes were obtained by two-step pulling by using an electrode puller (PP-10, Narishige). After an internal solution is injected into the electrodes, a water inlet resistance is 3 to 5 MΩ. During the experiment, a high potassium salt internal solution containing nystatin (K2SO4 of 75 mM, KCl of 120 mM, MgSO4 of 5 mM, HEPES of 10 mM, adjusting pH to 7.2 with Tris-base, and used after filtration) was used as an electrode internal solution. After the cells were sealed by the electrodes, there was no need to further break cell membranes in a sucked manner, but the cell membranes were bored through the perforation of the nystatin to the cell membranes, to form a hole channel. […] A clamping voltage was −60 mV, a sampling frequency was 10 kHz, and filtering was conducted at 2 kHz.
A working concentration of a P2X3 receptor agonist ATP was 1 μM, and an interval time between two times of ATP administrations was 10 minutes.

Structure (SMILES)	IC50 (human PAR-1)	IC50 (human P2X3)	also measured
COc1cc(C(C)C)c(Oc2cnc(N)nc2N)cc1S(N)(=O)=O [AF-219, reference compound]	–	–	Water drinking amount, Tap water (taste of SD rats; 10 mg/kg intraperitoneal injection, free drinking 15 minutes, amounts measured to the nearest 0.1 mL): 8.69; Water drinking amount, Sum (taste of SD rats; 10 mg/kg intraperitoneal injection, tap plus quinine water, 15 minutes, measured to the nearest 0.1 mL): 14.02; Water drinking amount, Quinine (taste of SD rats; 10 mg/kg intraperitoneal injection, water with 0.3 mM quinine hydrochloride, 15 minutes, measured to the nearest 0.1 mL): 5.33; drinking amount of bitter water compared with solvent control group (taste of SD rats; 10 mg/kg intraperitoneal, result in words): increased significantly; frequency and severity of cough in patients with chronic cough (chronic cough; clinical data): significantly effective in reducing the frequency and severity of cough; taste disorders in treated subjects (chronic cough; clinical trials): can lead to taste disorders
Cc1ccc(C2=NN(C(=O)N[C@H](C)c3ccc(C(F)(F)F)nc3)C[C@@H]2N2CCOCC2=O)cc1 [Compound 1, (S)-4-(3-oxomorpholin-4-yl)-3-(4-methylphenyl)-N-((R)-1-(6-(trifluoromethyl)pyridin-3-yl)ethyl)-4,5-dihydro-1H-pyrazol-1-carboxamide]	> 30000 nM	–	–
Cc1ccc(C2=NN(C(=O)N[C@H](C)c3ccc(C(F)(F)F)nc3)C[C@@H]2N2CCN(C)CC2=O)cc1 [Compound 17, (S)-4-(4-methyl-2-oxopiperazin-1-yl)-3-(4-methylphenyl)-N-((R)-1-(6-(trifluoromethyl)pyridin-3-yl)ethyl)-4,5-dihydro-1H-pyrazol-1-carboxamide]	> 30000 nM	–	IC50 (gpP2X3): 387 nM; IC50 (rP2X3): 140 nM
Cc1ccc(C2=NN(C(=O)N[C@H](C)c3ccc(C(F)(F)F)cc3)C[C@@H]2N2CCOCC2=O)cc1 [Compound 20]	> 30000 nM	–	–
Cc1ccc(C2=NN(C(=O)N[C@H](C)c3ccc(C(F)(F)F)nc3)C[C@@H]2N2CCCC2=O)cc1 [Compound 21]	> 30000 nM	129 nM	IC50 (human P2X4): > 20000 nM
Cc1ccc(C2=NN(C(=O)N[C@H](C)c3ccc(C(F)(F)F)nc3)C[C@H]2N2CCOC2=O)cc1 [Compound 22a, (R)-4-(2-oxooxazolidin-3-yl)-3-(4-methylphenyl)-N-((R)-1-(6-(trifluoromethyl)pyridin-3-yl)ethyl)-4,5-dihydro-1H-pyrazol-1-carboxamide]	–	38 nM	IC50 (gpP2X3): 578 nM; IC50 (rP2X3): 57 nM; IC50 (human P2X4): > 20000 nM
Cc1ccc(C2=NN(C(=O)N[C@H](C)c3ccc(C(F)(F)F)nn3)C[C@@H]2N2CCOCC2=O)cc1 [Compound 30, (S)-4-(3-oxomorpholin-4-yl)-3-(4-methylphenyl)-N-((R)-1-(6-(trifluoromethyl)pyridazin-3-yl)ethyl)-4,5-dihydro-1H-pyrazol-1-carboxamide]	> 30000 nM	–	–
Cc1ccc(C2=NN(C(=O)N[C@H](C)c3ccc(Cl)nn3)C[C@@H]2N2CCOC2=O)cc1 [Compound 31]	> 30000 nM	–	–
Cc1ccc(C2=NN(C(=O)N[C@H](C)c3cnc(C(F)(F)F)nc3)C[C@H]2N2CCCC2=O)cc1 [Compound 32a, (R)-4-(2-oxopyrrolidin-1-yl)-3-(4-methylphenyl)-N-((R)-1-(2-(trifluoromethyl)pyrimidin-5-yl)ethyl)-4,5-dihydro-1H-pyrazol-1-carboxamide]	–	82 nM	IC50 (human P2X4): > 20000 nM
Cc1ccc(C2=NN(C(=O)N[C@H](C)c3cnc(C(F)(F)F)nc3)C[C@@H]2N2CCOC2=O)cc1 [Compound 40, (S)-4-(2-oxooxazolidin-3-yl)-3-(4-methylphenyl)-N-((R)-1-(2-(trifluoromethyl)pyrimidin-5-yl)ethyl)-4,5-dihydro-1H-pyrazol-1-carboxamide]	> 30000 nM	–	–
Cc1ccc(C2=NN(C(=O)N[C@H](C)c3cnc(C(F)(F)F)nc3)C[C@@H]2N2CCN(C)C2=O)cc1 [Compound 41]	> 30000 nM	–	–
C[C@@H](NC(=O)N1C[C@@H](N2CCCC2=O)C(c2ccc(F)cc2)=N1)c1cnc(Cl)nc1 [Compound 44a, (R)-4-(2-oxopyrrolidin-1-yl)-3-(4-fluorophenyl)-N-((R)-1-(2-chloropyrimidin-5-yl)ethyl)-4,5-dihydro-1H-pyrazol-1-carboxamide]	–	421 nM	–
Cc1ccc(C2=NN(C(=O)N[C@H](C)c3nc(C)no3)C[C@@H]2N2CCCC2=O)cc1 [Compound 45]	> 30000 nM	–	–
